Entries after “also recorded” stand apart in the source; their conditions may differ.
Tests used:
CYP4A11 mRNA = assay: RT-PCR of CYP4A11 mRNA in U251 cultures; assay type: cell-based, human; details: 10 μM HET0016 for 24 hr
Protocol: EtOH-treated cultures were used as solvent controls. Briefly, total RNA was isolated with Trizol reagent (Invitrogen) and 1-2 μg RNA was used to synthesize cDNA using a First Strand synthesis kit (Invitrogen). We used PCR primers that specifically recognize CYP4A11, and β-actin-specific primers. A 1 μCi ^32P per sample was added to Platinum PCR Supermix (Invitrogen). The PCR conditions used to amplify CYP4A 11 and β-actin consisted of a precycle of 95° C for 3 min followed by 35 cycles of 95° C for 45 s, 52° C. for 30 s, and 72° C. for 2 min, with final extension at 72° C. for 10 min. The primers used were: β-actin forward primer, 5′-TGCGTGACATTAAGGAGAAG-3′ (SEQ ID NO:3); β-actin reverse primer, 5′-GCT CGT AGC TCT TCT CCA-3′ (SEQ ID NO:4); CYP4A11 forward primer, 5′-CCACCTGGACCAGAGGCCCTACACCACC-3′ (SEQ ID NO:5); CYP4A11 reverse primer, 5′-AGGATATGGGCAGACAGGAA-3′(SEQ ID NO:6). PCR products were subjected to electrophoresis in 5% bis-acrylamide gels and visualized by autoradiography.

rat cornea = assay: Rat cornea pocket angiogenesis assay (growth factor pellets); assay type: in vivo
Protocol: (i) Preparation of sustained-release polymer: Sustained-release polymer pellets were prepared by making a 1:1 mix of a 12% solution in ethanol of the polymer (Hydron polyhydroxyethylmethacrylate), with saline containing the growth factors. The growth factors bFGF, VEGF, and EGF were dissolved at a concentration of 125 ng/μl. […] 2 μl of these solutions were added to each pellet. Thus, a pellet containing 250 ng of a single growth factor was implanted at random in the right or left eye. The other eye was implanted with a pellet containing the same dose of growth factor+HET0016. In some rats the pellet contained VEGF alone and VEGF+DDMS. 20 μg of the stable 20-HETE agonist analog WIT003 was implanted in one eye to determine whether it induces angiogenesis. […] 9 μl of the 1:1 Hydron/treatment mixture was placed on the ends of 1.5-cm rods. Each pellet contained 250 ng of its respective growth factor. For bFGF we used sucralfate to stabilize and allow sustained release of this growth factor (Volkin D B et al., Biochim Biophys Acta 1993, 1203:18-26). After drying the pellets for 1 hour, they were ready to be implanted into the cornea of rats.
(ii) Pellet implantation: The rats were anesthetized IM with ketamine (80 mg/kg) and xylazine (10 mg/kg). The eyes were topically anesthetized with 0.5% proparacaine (Ophthetic, Alcon, Tex.) and the globes proptosed with a jeweler's forceps. Using an operating microscope, a central intrastromal linear keratotomy, approximately 1.5 mm in length, was performed with a surgical blade (Bard-Parker #11; Becton Dickinson, Franklin Lake, N.Y.) parallel to the insertion of the lateral rectus muscle. A curved iris spatula (No. 10093-13, Fine Science Tools, Belmont, Calif.) approximately 1.5 mm wide and 5 mm long was inserted under the lip of the incision and gently pushed through the stroma toward the temporal limbus of the eye. The distance between the limbus and the base of the pocket was kept at 1.0±0.1 mm. The pellet was advanced to the temporal end of the pocket. Antibiotic ointment (erythromycin) was applied to the anterior surface of the eye.
(iv) Quantitation of corneal neovascularization: Seven days after pellet implantation, the rats were deeply anesthetized as previously described with ketamine and xylazine. The left ventricle was cannulated and the animal was perfused with 20-25 ml saline through the left ventricle followed by 20-25 ml India ink (waterproof drawing ink, Sanford, Bellwood, Ill.). The eyes were marked for orientation, enucleated and placed in 4% formalin for 24 hours. The cornea was dissected free from the surrounding globe and underlying iris, bisected, and loosely mounted between two glass slides, thus gently flattening the cornea. These flat mounts were examined microscopically using a Nikon Diaphot Epi-fluor 2 microscope attached to a CCD video camera and the images were digitized and saved using a computer.
Neovascularization was determined by comparing total vessel length in the control and experimental eyes. Vessel length was determined by tracing each vessel from the limbus to the pellet. Total length is the sum of these values in pixels and was determined using conventional image analysis software (Sigma Scan Pro, SPSS, Chicago, Ill.)

U251 human glioma cells = assay: U251 cell proliferation assay (cell counting); assay type: cell-based
Protocol: Culture Conditions: Cells were routinely maintained in DMEM (Invitrogen) supplemented with 10% heat-inactivated fetal bovine serum (FBS), penicillin (10 IU/ml), streptomycin (10 μg/ml) and 10% non-essential amino acids (all purchased from Invitrogen). Cells were maintained at 37° C. in a humidified incubator containing 5% CO2. They were grown in medium containing 10% FBS, which was then replaced with serum-free medium where U251 cells grow exponentially. Treatments were initiated one day after serum removal.
Cell Proliferation Assays: Proliferation studies were performed with cultures plated at a density that ensured exponential growth for at least 5 days. Growth medium was generally replaced by serum-free medium 24 hr after plating. Cells were treated with various concentrations of a given compounds for 24 or 48 hr as described in the Methods. […] Organic solvent never exceeded 0.1% of total culture volume. Cells were harvested by exposure to 0.05% trypsin/EDTA and counted using a hemocytometer.

9L rat gliosarcoma cells = assay: [3H]thymidine incorporation in 9L cells; assay type: cell-based; details: 10 μM HET0016
Protocol: [^3H]Thymidine Incorporation Studies: Thymidine incorporation studies were performed with cells grown in 35-mm culture dishes. […] Palmitic acid and EtOH served as nonspecific fatty acid and vehicle controls, respectively. At the end of the pulse, the medium was aspirated and the cells rinsed twice with cold 1× phosphate buffered saline (PBS). The rinsed cultures were fixed by exposure to cold 5% trichloracetic acid overnight at 4° C., after which fixed cells were extracted as described previously (Scholler et al., Mol. Pharmacol. 45: 944-954, 1994). A second set of non-fixed dishes was treated with 0.05% trypsin/EDTA to estimate cell numbers. [^3H]thymidine was detected by scintillation counting and expressed as dpm/10^3 cells.

CCCCc1ccc(N=CNO)c(C)c1 [HET0016, N-hydroxy-N′-(4-butyl-2 methylphenyl) formamidine]
CYP4A11 transcript levels (CYP4A11 mRNA): decreased | angiogenic response to inhibitor alone (rat cornea; 20 μg HET0016 or 10 μg DDMS per pellet, no growth factor): Neither HET0016 nor DDMS alone elicited a response different from saline | effect on the angiogenic response to EGF (rat cornea; EGF 250 ng/pellet + 20 μg HET0016): drastically decreased the angiogenic response; also recorded: obliterated; also recorded: blocks the angiogenic response | reduction of angiogenic responses to VEGF (rat cornea; VEGF 250 ng/pellet + 5 μg HET0016): about 50% | effect on the angiogenic response to VEGF (rat cornea; VEGF 250 ng/pellet + 20 μg HET0016, 7 days): almost completely abolished; also recorded: obliterated; also recorded: inhibit angiogenic responses to VEGF | effect on the angiogenic response to VEGF (rat cornea; VEGF 250 ng/pellet + 40 μg HET0016): almost completely abolished | effect on the angiogenic response to bFGF (rat cornea; bFGF 250 ng/pellet + 20 μg HET0016): drastically decreased the angiogenic response; also recorded: obliterated; also recorded: blocks the angiogenic response | effect on EGF-induced proliferation of U251 cells (U251 human glioma cells; 200 ng/ml EGF + 10 μM HET0016, 48 hr): inhibited; also recorded: inhibits the effects of EGF | inhibition of proliferation of U251 cancer cells (FIG. 17) (U251 human glioma cells; 96-well plates, HET0016 for 48 hrs): about 50% | inhibition at 10 µM (U251 human glioma cells; Homo sapiens, U-251, 48 h): ~60% | concentration dependence of inhibition of U251 proliferation (U251 human glioma cells; various concentrations): suppressed by HET0016 in a concentration-dependent manner | reduction of thymidine incorporation in 9L cultures (9L rat gliosarcoma cells): 60%
